Data published in patent US20100137398A1, “USE OF HDAC INHIBITORS FOR THE TREATMENT OF GASTROINTESTINAL CANCERS” (NOVARTIS AG, priority 2007, published 2010).

How the values were obtained:
Assay in all cases: Monolayer growth inhibition assay (MTT/MTS)
Assay type in all cases: cell-based
[1] = test system: C170 colon cancer cell line
Excerpt: (§1) The MTT is a colorimetric assay to determine the cell proliferation rate. The yellow tetrazolium MTT (3-(4, 5-dimethylthiazolyl-2)-2, 5-diphenyltetrazolium bromide) is reduced, by metabolically active cells, in part by the action of dehydrogenase enzymes, to generate reducing equivalents such as NADH and NADPH. The resulting intracellular purple formazan can be solubilized and quantified by spectrophotometric means. The signals produced is directly proportional to the cell numbers. Describing the MTT assay in detail, experiments were done using six-point or 9 point drug titrations in multi-well tissue culture dishes, with outer rows left empty. Cells were suspended in complete media at densities of between 10^3 and 10^4 cell/ml, respectively, and added per well. The appropriate medium (200 μl) was then added. Twenty-four hours later, 10 μl of MTS solution, were added to one plates to determine the activity at the time of compound addition (T0). This plate was incubated at 37° for 4 hours and the optical density was measured on a Molecular Devices Thermomax at 490 nm using the Softmax program. The T0 plate served as a reference for initial activity at the beginning of the experiment.
(§2) Compound addition began 24 hours after seeding, the same time as the T0 determination. Serial dilutions at 4-fold 2-fold, 1-fold, 0.5-fold, 0.25-fold and 0.125-fold of previously determined IC50 values of each compound were made in a 96-deep well plate with the highest concentrations on the edge of the plate. Each of the six dilutions were added in triplicate and complete medium was added to the empty outer rows, without cells. The compounds were added to the plates singly or in combination with Compound III (LBH589). The plates were incubated at 37° C. for 72 hours from seeding. The MTS solution was added (as for the T0 plate) and read four hours later. In order to analyze the data, the average value of media alone (background) was subtracted from each experimental well and the triplicate values were averaged for each compound dilution. The following formulas were used to calculate percent growth.
(§3) If X>T0, % Growth=100×(X−T0)/(GC−T0))
(§4) If X<T0, % Growth=100×(X−T0)/T0)
(§5) T0=average value of T0 minus background
(§6) GC=average value of untreated cells (in triplicate) minus background X=average value, of compound treated cells (in triplicate) minus background
(§7) IC50 the concentration of LBH589 required to inhibit cell growth by 50% and LD50s the concentration required to reduce cell number (kill cells) to 50% the original innoculum were determined. The “% Growth” was plotted against compound concentration and used to calculate IC50s and LD50s, employing the user-defined spline function in Microsoft Excel.
(§8) Colon cancer cell lines were treated with DMSO vehicle control or varying concentrations of LBH589 for 3 days. Cell proliferation was measured on the day of cell plating and on the third day post-treatment. IC50 and LD50 values were calculated as described above.

[2] = test system: Colo201 colon cancer cell line
Excerpt: as §1, §2, §3, §4, §5, §6, §7, §8

[3] = test system: Colo206F colon cancer cell line
Excerpt: as §1, §2, §3, §4, §5, §6, §7, §8

[4] = test system: Colo320DM colon cancer cell line
Excerpt: as §1, §2, §3, §4, §5, §6, §7, §8

[5] = test system: Colo678 colon cancer cell line
Excerpt: as §1, §2, §3, §4, §5, §6, §7, §8

[6] = test system: DLD-1 colon cancer cell line
Excerpt: as §1, §2, §3, §4, §5, §6, §7, §8

[7] = test system: HCT116 Bax −/− colon cancer cell line
Excerpt: as §1, §2, §3, §4, §5, §6, §7, §8

[8] = test system: HCT116 colon cancer cell line
Excerpt: as §1, §2, §3, §4, §5, §6, §7, §8

[9] = test system: HCT8 colon cancer cell line
Excerpt: as §1, §2, §3, §4, §5, §6, §7, §8

[10] = test system: HT29 colon cancer cell line
Excerpt: as §1, §2, §3, §4, §5, §6, §7, §8

[11] = test system: LOVO colon cancer cell line
Excerpt: as §1, §2, §3, §4, §5, §6, §7, §8

[12] = test system: MDST8 colon cancer cell line
Excerpt: as §1, §2, §3, §4, §5, §6, §7, §8

[13] = test system: RKO colon cancer cell line
Excerpt: as §1, §2, §3, §4, §5, §6, §7, §8

[14] = test system: SNU-C1 colon cancer cell line
Excerpt: as §1, §2, §3, §4, §5, §6, §7, §8

[15] = test system: SW48 colon cancer cell line
Excerpt: as §1, §2, §3, §4, §5, §6, §7, §8

[16] = test system: SW948 colon cancer cell line
Excerpt: as §1, §2, §3, §4, §5, §6, §7, §8

[17] = test system: T84 colon cancer cell line
Excerpt: as §1, §2, §3, §4, §5, §6, §7, §8

[18] = 3 days, concentration reducing cell number to 50% of original inoculum

## Cc1[nH]c2ccccc2c1CCNCc1ccc(/C=C/C(=O)NO)cc1 [LBH589, N-hydroxy-3-[4-[[[2-(2-methyl-1H-indol-3-yl)ethyl]-amino]methyl]phenyl]-2E-2-propenamide]
[1]; C170, 3 days, concentration reducing cell number to 50% of original inoculum
  LD50: 382.03 nM
[1]; Homo sapiens, 72 h, C170, 3 days treatment
  IC50: 62.3 nM
[2]; Colo201, 3 days, concentration reducing cell number to 50% of original inoculum
  LD50: 20.14 nM
[2]; Homo sapiens, COLO 201, 72 h, Colo201, 3 days treatment
  IC50: 15.1 nM
[3]; [18]
  LD50: >10 µM
[3]; COLO 206F, 72 h, 3 days treatment
  IC50: 10.1 nM
[4]; [18]
  LD50: 1103.37 nM
[4]; Homo sapiens, COLO 320DM, 72 h, 3 days treatment
  IC50: 29.5 nM
[5]; Colo678, 3 days, concentration reducing cell number to 50% of original inoculum
  LD50: 45.52 nM
[5]; Homo sapiens, COLO-678, 72 h, Colo678, 3 days treatment
  IC50: 5.6 nM
[6]; DLD-1, 3 days, concentration reducing cell number to 50% of original inoculum
  LD50: 296.27 nM
[6]; Homo sapiens, 72 h, DLD-1, 3 days treatment
  IC50: 61.4 nM
[7]; [18]
  LD50: >10 µM
[7]; Homo sapiens, HCT-116, 72 h, 3 days treatment
  IC50: 1.73 nM
[8]; HCT116, 3 days, concentration reducing cell number to 50% of original inoculum
  LD50: 51.72 nM
[8]; Homo sapiens, HCT-116, 72 h, HCT116, 3 days treatment
  IC50: 7.11 nM
[9]; HCT8, 3 days, concentration reducing cell number to 50% of original inoculum
  LD50: 77.70 nM
[9]; Homo sapiens, HCT-8, 72 h, HCT8, 3 days treatment
  IC50: 4.94 nM
[10]; HT29, 3 days, concentration reducing cell number to 50% of original inoculum
  LD50: 70.23 nM
[10]; Homo sapiens, HT-29, 72 h, HT29, 3 days treatment
  IC50: 2.83 nM
[11]; [18]
  LD50: 52.01 nM
[11]; Homo sapiens, 72 h, 3 days treatment
  IC50: 4.37 nM
[12]; 72 h, MDST8, 3 days treatment
  IC50: 4.87 nM
[12]; MDST8, 3 days, concentration reducing cell number to 50% of original inoculum
  LD50: 48.44 nM
[13]; 72 h, 3 days treatment
  IC50: 5.57 nM
[13]; [18]
  LD50: 2346.13 nM
[14]; Homo sapiens, 72 h, SNU-C1, 3 days treatment
  IC50: 4.51 nM
[14]; SNU-C1, 3 days, concentration reducing cell number to 50% of original inoculum
  LD50: 26.07 nM
[15]; Homo sapiens, 72 h, SW48, 3 days treatment
  IC50: 1.29 nM
[15]; SW48, 3 days, concentration reducing cell number to 50% of original inoculum
  LD50: 13.09 nM
[16]; Homo sapiens, 72 h, SW948, 3 days treatment
  IC50: 5.06 nM
[16]; SW948, 3 days, concentration reducing cell number to 50% of original inoculum
  LD50: 34.92 nM
[17]; 72 h, T84, 3 days treatment
  IC50: 2.16 nM
[17]; T84, 3 days, concentration reducing cell number to 50% of original inoculum
  LD50: 32.82 nM
